Data from paper PMC2735267 (Neuropharmacology, 2009).
Like-named read-outs stand apart in the source and are kept apart here. Marks after values point to notes of the source that are not given here.

Legend:
[1] = test system: cytisine-resistant [125I]epibatidine binding sites; settings: for Cytisine-resistant [125I]epibatidine binding: 3-IC 0.2 mg/kg/h iv 7 days; for Cytisine-resistant [125I]epibatidine binding % change: 3-IC 0.2 mg/kg/h iv 7 days vs saline
α7* nAChR binding sites = format: in vivo, DBA/2J mice; settings: for [125I]α-bungarotoxin binding: 3-IC 0.2 mg/kg/h iv 7 days; for [125I]α-bungarotoxin binding % change: 3-IC 0.2 mg/kg/h iv 7 days vs saline
[2] = superior colliculus (optic nerve)
[3] = superior colliculus (sup. gray)
[4] = inferior colliculus (externall)
[5] = supramammillary hypothalamic nucleus
[6] = ventrolateral geniculate nucleus

O=c1c(I)ccc2n1C[C@@H]1CNC[C@H]2C1 [3-IC, 3-iodocytisine]
Cytisine-resistant [125I]epibatidine binding ([1]; retrosplenial Cortex): 1.63 ± 0.11 fmol/mg
Cytisine-resistant [125I]epibatidine binding % change ([1]; retrosplenial Cortex): 35.8%
Cytisine-resistant [125I]epibatidine binding ([1]; subiculum): 1.89 ± 0.10 fmol/mg
Cytisine-resistant [125I]epibatidine binding ([1]; substantia nigra): 1.6 ± 0.2 fmol/mg
Cytisine-resistant [125I]epibatidine binding % change ([1]; substantia nigra): 6.7%
Cytisine-resistant [125I]epibatidine binding [1, 2]: 3.21 ± 0.14 fmol/mg
Cytisine-resistant [125I]epibatidine binding % change [1, 2]: 0.5%
Cytisine-resistant [125I]epibatidine binding [1, 3]: 11.25 ± 0.12 fmol/mg
Cytisine-resistant [125I]epibatidine binding % change [1, 3]: 10.8%
Cytisine-resistant [125I]epibatidine binding ([1]; ventral tegmental area): 3.4 ± 0.69 fmol/mg
Cytisine-resistant [125I]epibatidine binding % change ([1]; ventral tegmental area): 20.5%
Cytisine-resistant [125I]epibatidine binding ([1]; ventromedial thalamic nucleus): 3.29 ± 0.46 fmol/mg
Cytisine-resistant [125I]epibatidine binding % change ([1]; ventromedial thalamic nucleus): 13.4%
Cytisine-resistant [125I]epibatidine binding ([1]; zona incerta): 2.34 ± 0.22 fmol/mg
[125I]α-bungarotoxin binding (α7* nAChR binding sites; caudate putamen): 19.6 ± 2.3 fmol/mg
[125I]α-bungarotoxin binding % change (α7* nAChR binding sites; caudate putamen): 65.8%
[125I]α-bungarotoxin binding % change (α7* nAChR binding sites; caudate putamen, listed as 3-iodocytisine): 65.8 * %
[125I]α-bungarotoxin binding (α7* nAChR binding sites; cingulate cortex): 6.3 ± 1.4 fmol/mg
[125I]α-bungarotoxin binding % change (α7* nAChR binding sites; cingulate cortex): 11.7%
[125I]α-bungarotoxin binding (α7* nAChR binding sites; dentate gyrus (granular layer)): 11.7 ± 1.2 fmol/mg
[125I]α-bungarotoxin binding % change (α7* nAChR binding sites; dentate gyrus (granular layer)): 63.5%
[125I]α-bungarotoxin binding (α7* nAChR binding sites; hippocampus (CA1-3)): 10.2 ± 0.8 fmol/mg
[125I]α-bungarotoxin binding % change (α7* nAChR binding sites; hippocampus (CA1-3)): 77.5%
[125I]α-bungarotoxin binding % change (α7* nAChR binding sites; hippocampus (CA1-3), listed as 3-iodocytisine): 77.5 ** %
[125I]α-bungarotoxin binding (α7* nAChR binding sites; inferior colliculus (central)): 37.6 ± 4.2 fmol/mg
[125I]α-bungarotoxin binding % change (α7* nAChR binding sites; inferior colliculus (central)): 21.7%
[125I]α-bungarotoxin binding (α7* nAChR binding sites; inferior colliculus (dorsal)): 21.7 ± 3.7 fmol/mg
[125I]α-bungarotoxin binding % change (α7* nAChR binding sites; inferior colliculus (dorsal)): 14.4%
[125I]α-bungarotoxin binding (α7* nAChR binding sites; [4]): 23.5 ± 4.1 fmol/mg
[125I]α-bungarotoxin binding % change (α7* nAChR binding sites; [4]): 33.1%
[125I]α-bungarotoxin binding (α7* nAChR binding sites; interpeduncular nucleus): 23.5 ± 1.4 fmol/mg
[125I]α-bungarotoxin binding % change (α7* nAChR binding sites; interpeduncular nucleus): 26.2 * %
[125I]α-bungarotoxin binding (α7* nAChR binding sites; medial habenula): 11.6 ± 1.0 fmol/mg
[125I]α-bungarotoxin binding % change (α7* nAChR binding sites; medial habenula): 26.4%
[125I]α-bungarotoxin binding (α7* nAChR binding sites; nucleus accumbens): 6.8 ± 0.7 fmol/mg
[125I]α-bungarotoxin binding % change (α7* nAChR binding sites; nucleus accumbens): 81.2%
[125I]α-bungarotoxin binding % change (α7* nAChR binding sites; nucleus accumbens, listed as 3-iodocytisine): 81.2 ** %
[125I]α-bungarotoxin binding (α7* nAChR binding sites; parietal cortex (layers 1-3)): 5.9 ± 0.3 fmol/mg
[125I]α-bungarotoxin binding % change (α7* nAChR binding sites; parietal cortex (layers 1-3)): 79.3 ** %
[125I]α-bungarotoxin binding (α7* nAChR binding sites; parietal cortex (layers 4-6)): 7.8 ± 0.4 fmol/mg
[125I]α-bungarotoxin binding % change (α7* nAChR binding sites; parietal cortex (layers 4-6)): 74.4 ** %
[125I]α-bungarotoxin binding (α7* nAChR binding sites; retrosplenial Cortex): 4.8 ± 0.4 fmol/mg
[125I]α-bungarotoxin binding % change (α7* nAChR binding sites; retrosplenial Cortex): 21.2%
[125I]α-bungarotoxin binding (α7* nAChR binding sites; subiculum): 7.1 ± 0.7 fmol/mg
[125I]α-bungarotoxin binding % change (α7* nAChR binding sites; subiculum): 22.0%
[125I]α-bungarotoxin binding (α7* nAChR binding sites; substantia nigra): 7.9 ± 0.9 fmol/mg
[125I]α-bungarotoxin binding % change (α7* nAChR binding sites; substantia nigra): 29.5%
[125I]α-bungarotoxin binding (α7* nAChR binding sites; [2]): 11.5 ± 0.5 fmol/mg
[125I]α-bungarotoxin binding % change (α7* nAChR binding sites; [2]): 44.2 ** %
[125I]α-bungarotoxin binding (α7* nAChR binding sites; [3]): 23.1 ± 0.8 fmol/mg
[125I]α-bungarotoxin binding % change (α7* nAChR binding sites; [3]): 34.7 ** %
[125I]α-bungarotoxin binding (α7* nAChR binding sites; [5]): 12.1 ± 1.2 fmol/mg
[125I]α-bungarotoxin binding % change (α7* nAChR binding sites; [5]): 24.4%
[125I]α-bungarotoxin binding (α7* nAChR binding sites; ventral tegmental area): 5.2 ± 0.4 fmol/mg
[125I]α-bungarotoxin binding % change (α7* nAChR binding sites; ventral tegmental area): 40.5%
[125I]α-bungarotoxin binding % change (α7* nAChR binding sites; ventral tegmental area, listed as 3-iodocytisine): 40.5 * %
[125I]α-bungarotoxin binding (α7* nAChR binding sites; [6]): 18.1 ± 1.2 fmol/mg
[125I]α-bungarotoxin binding % change (α7* nAChR binding sites; [6]): 30.2 * %
[125I]α-bungarotoxin binding (α7* nAChR binding sites; zona incerta): 11.1 ± 1.0 fmol/mg
[125I]α-bungarotoxin binding % change (α7* nAChR binding sites; zona incerta): 52.1%
[125I]α-bungarotoxin binding % change (α7* nAChR binding sites; zona incerta, listed as 3-iodocytisine): 52.1 * %
